From patent US6479435B1, “Diaryl ethers and processes for their preparation and herbicidal and desiccant compositions containing them” (ISK Americas Incorporated, priority 1997, dated 2002)

Legend:
Format in all cases: in vivo
[1] = tested on: Johnsongrass (Sorghum halepense, SORHA); assay: Pre-emerge greenhouse herbicide test, phytotoxicity rating; conditions: Sorghum halepense, pre-emergence, 336 h, 14 days after application, rating scale 0-100; for pest or weed control at 125 g/ha: Rate 125 g al/ha; for pest or weed control at 500 g/ha: Rate 500 g al/ha
Summary of the method: (§1)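 Visual 0–100 injury rating (100 = all plants dead) taken 14 days after treatment. Rates of 125–1000 g ai/ha in acetone, 187 l/ha, were sprayed onto soil one day post-sowing; pots were surface-watered to incorporate, then bottom-watered.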

[2] = tested on: barnyardgrass (Echinochloa crusgalli, ECHCG); assay: as above; conditions: Echinochloa crus-galli, pre-emergence, 336 h, 14 days after application, rating scale 0-100; for pest or weed control at 125 g/ha: Rate 125 g al/ha; for pest or weed control at 500 g/ha: Rate 500 g al/ha
Summary of the method: as §1

[3] = tested on: green foxtail (Setaria viridis, SETVI); assay: as above; conditions: Setaria viridis, pre-emergence, 336 h, 14 days after application, rating scale 0-100; for pest or weed control at 125 g/ha: Rate 125 g al/ha; for pest or weed control at 500 g/ha: Rate 500 g al/ha
Summary of the method: as §1

[4] = tested on: ivyleaf morningglory (Ipomoea hederacea, IPOHE); assay: as above; conditions: Ipomoea, pre-emergence, 336 h, 14 days after application, rating scale 0-100; for pest or weed control at 125 g/ha: Rate 125 g al/ha; for pest or weed control at 500 g/ha: Rate 500 g al/ha
Summary of the method: as §1

[5] = tested on: lambsquarters (Chenopodium album, CHEAL); assay: as above; conditions: Chenopodium album, pre-emergence, 336 h, 14 days after application, rating scale 0-100; for pest or weed control at 125 g/ha: Rate 125 g al/ha; for pest or weed control at 500 g/ha: Rate 500 g al/ha
Summary of the method: as §1

[6] = tested on: velvetleaf (Abutilon theophrasti, ABUTH); assay: as above; conditions: Abutilon theophrasti, pre-emergence, 336 h, 14 days after application, rating scale 0-100; for pest or weed control at 125 g/ha: Rate 125 g al/ha; for pest or weed control at 500 g/ha: Rate 500 g al/ha
Summary of the method: as §1

[7] = tested on: Johnsongrass (Sorghum halepense, SORHA); assay: Post-emerge greenhouse herbicide test, phytotoxicity rating; conditions: Sorghum halepense, post-emergence, 336 h, 14 days after application, scale 0-100; for pest or weed control at 63 g/ha: rate 63 g ai/ha; for pest or weed control at 500 g/ha: rate 500 g ai/ha
Summary of the method: (§2)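 Scores use a 0 (no damage) to 100 (complete kill) scale, taken 14 days after a foliar spray. Acetone solutions with 0.25% v/v non-ionic surfactant were applied by track sprayer at 187 l/ha and 63-1000 g ai/ha to bottom-watered 2-3 leaf plants.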

[8] = tested on: barnyardgrass (Echinochloa crusgalli, ECHCG); assay: as above; conditions: Echinochloa crus-galli, post-emergence, 336 h, 14 days after application, scale 0-100; for pest or weed control at 63 g/ha: rate 63 g ai/ha; for pest or weed control at 500 g/ha: rate 500 g ai/ha
Summary of the method: as §2

[9] = tested on: green foxtail (Setaria viridis, SETVI); assay: as above; conditions: Setaria viridis, post-emergence, 336 h, 14 days after application, scale 0-100; for pest or weed control at 63 g/ha: rate 63 g ai/ha; for pest or weed control at 500 g/ha: rate 500 g ai/ha
Summary of the method: as §2

[10] = tested on: ivyleaf morningglory (Ipomoea hederacea, IPOHE); assay: as above; conditions: Ipomoea, post-emergence, 336 h, 14 days after application, scale 0-100; for pest or weed control at 63 g/ha: rate 63 g ai/ha; for pest or weed control at 500 g/ha: rate 500 g ai/ha
Summary of the method: as §2

[11] = tested on: lambsquarters (Chenopodium album, CHEAL); assay: as above; conditions: Chenopodium album, post-emergence, 336 h, 14 days after application, scale 0-100; for pest or weed control at 63 g/ha: rate 63 g ai/ha; for pest or weed control at 500 g/ha: rate 500 g ai/ha
Summary of the method: as §2

[12] = tested on: large crabgrass (Digitaria sanguinalis, DIGSA); assay: as above; conditions: Digitaria sanguinalis, post-emergence, 336 h, 14 days after application, scale 0-100; for pest or weed control at 63 g/ha: rate 63 g ai/ha; for pest or weed control at 500 g/ha: rate 500 g ai/ha
Summary of the method: as §2

[13] = tested on: redroot pigweed (Amaranthus retroflexus, AMARE); assay: as above; conditions: Amaranthus retroflexus, post-emergence, 336 h, 14 days after application, scale 0-100; for pest or weed control at 63 g/ha: rate 63 g ai/ha; for pest or weed control at 500 g/ha: rate 500 g ai/ha
Summary of the method: as §2

[14] = tested on: sicklepod (Cassia obtusifolia, CASOB); assay: as above; conditions: Senna obtusifolia, post-emergence, 336 h, 14 days after application, scale 0-100; for pest or weed control at 63 g/ha: rate 63 g ai/ha; for pest or weed control at 500 g/ha: rate 500 g ai/ha
Summary of the method: as §2

[15] = tested on: velvetleaf (Abutilon theophrasti, ABUTH); assay: as above; conditions: Abutilon theophrasti, post-emergence, 336 h, 14 days after application, scale 0-100; for pest or weed control at 63 g/ha: rate 63 g ai/ha; for pest or weed control at 500 g/ha: rate 500 g ai/ha
Summary of the method: as §2

SMILES	pest or weed control at 125 g/ha [1]	pest or weed control at 500 g/ha [1]	pest or weed control at 125 g/ha [2]	pest or weed control at 500 g/ha [2]	pest or weed control at 125 g/ha [3]	pest or weed control at 500 g/ha [3]	pest or weed control at 125 g/ha [4]	pest or weed control at 500 g/ha [4]	pest or weed control at 125 g/ha [5]	pest or weed control at 500 g/ha [5]	pest or weed control at 125 g/ha [6]	pest or weed control at 500 g/ha [6]	pest or weed control at 63 g/ha [7]	pest or weed control at 500 g/ha [7]	pest or weed control at 63 g/ha [8]	pest or weed control at 500 g/ha [8]	pest or weed control at 63 g/ha [9]	pest or weed control at 500 g/ha [9]	pest or weed control at 63 g/ha [10]	pest or weed control at 500 g/ha [10]	other results
O=c1n(-c2cc(Oc3ncccc3C(F)(F)F)c(Cl)cc2F)c(=S)n2n1CCCC2 [Compound 8-18, 2-[4-chloro-2-fluoro-5-(3-trifluoromethyl-2pyridyloxy)phenyl]hexahydro-3-thioxo-1H-[1,2,4]triazolo[1,2-a]pyridazin-1-one]	40%	100%	40%	80%	95%	100%	20%	45%	100%	100%	100%	100%	50%	90%	70%	70%	40%	70%	100%	100%	pest or weed control at 63 g/ha [11]: 100%; pest or weed control at 500 g/ha [11]: 100%; pest or weed control at 63 g/ha [12]: 0%; pest or weed control at 500 g/ha [12]: 10%; pest or weed control at 63 g/ha [13]: 100%; pest or weed control at 500 g/ha [13]: 100%; pest or weed control at 63 g/ha [14]: 70%; pest or weed control at 500 g/ha [14]: 100%; pest or weed control at 63 g/ha [15]: 100%; pest or weed control at 500 g/ha [15]: 100%
O=c1n(-c2cc(Oc3ncccn3)c(Cl)cc2F)c(=S)n2n1CCCC2 [Compound 8-29, 2-[4-chloro-2-fluoro-5-(2-pyrimidyloxy)phenyl]hexahydro-3-thioxo-1H-[1,2,4]triazolo[1,2-a]pyridazin-1-one]	100%	100%	100%	100%	100%	100%	100%	100%	100%	100%	100%	100%	90%	100%	80%	100%	90%	100%	100%	100%	pest or weed control at 63 g/ha [11]: 100%; pest or weed control at 500 g/ha [11]: 100%; pest or weed control at 63 g/ha [12]: 50%; pest or weed control at 500 g/ha [12]: 100%; pest or weed control at 63 g/ha [13]: 100%; pest or weed control at 500 g/ha [13]: 100%; pest or weed control at 63 g/ha [14]: 100%; pest or weed control at 500 g/ha [14]: 100%; pest or weed control at 63 g/ha [15]: 100%; pest or weed control at 500 g/ha [15]: 100%
Nn1c(C(F)(F)F)cc(=O)n(-c2cc(Oc3ncccc3[N+](=O)[O-])c(Cl)cc2F)c1=O [Compound 9-1, 1-amino-3-[4-chloro-2-fluoro-5-(3-nitro-2-pyridyloxy)phenyl]-6-trifluoromethyl-1,2,3,4-tetrahydropyrimidine-2,4-dione]	95%	99%	95%	100%	99%	100%	100%	100%	100%	100%	100%	100%	70%	99%	30%	100%	20%	90%	100%	100%	pest or weed control at 63 g/ha [11]: 95%; pest or weed control at 500 g/ha [11]: 100%; pest or weed control at 63 g/ha [12]: 20%; pest or weed control at 500 g/ha [12]: 50%; pest or weed control at 63 g/ha [13]: 100%; pest or weed control at 500 g/ha [13]: 100%; pest or weed control at 63 g/ha [14]: 30%; pest or weed control at 500 g/ha [14]: 30%; pest or weed control at 63 g/ha [15]: 100%; pest or weed control at 500 g/ha [15]: 100%
Nn1c(C(F)(F)F)cc(=O)n(-c2cc(Oc3ccc(Br)cn3)c(Cl)cc2F)c1=O [Compound 9-2, 1-Amino-3-[4-chloro-2-fluoro-5-(5-bromo-2-pyridyloxy)phenyl]-6-trifluoromethyl-1,2,3,4-tetrahydropyrimidine-2,4-dione]	60%	90%	20%	95%	80%	100%	0%	100%	100%	100%	30%	100%	10%	70%	10%	80%	10%	60%	100%	80%	pest or weed control at 63 g/ha [11]: 100%; pest or weed control at 500 g/ha [11]: 95%; pest or weed control at 63 g/ha [12]: 0%; pest or weed control at 500 g/ha [12]: 30%; pest or weed control at 63 g/ha [13]: 100%; pest or weed control at 500 g/ha [13]: 100%; pest or weed control at 63 g/ha [14]: 30%; pest or weed control at 500 g/ha [14]: 95%; pest or weed control at 63 g/ha [15]: 100%; pest or weed control at 500 g/ha [15]: 100%
